# Reference: patent US6730665B1, “Treatment of bone cancer” (Mayo Foundation for Medical Education and Research, priority 1999, dated 2004)
# What was measured:
# [1] = system: hFOB cells overexpressing estrogen receptor-alpha (hFOB-ERα); test: Cell survival, viable cell count with trypan blue; format: cell-based, human; settings: 2 μM, 72 h
# Description: (§1) MG63 and TE85 human osteosarcoma cells, and ROS 17/2.8 rat osteosarcoma cells were grown in DMEM/F12 phenol-red free medium containing 10% charcoal-stripped fetal bovine serum (FBS) and supplemented with 100 units/ml penicillin, 100 μg/ml streptomycin. Cell were incubated at 37° C. under 5% CO2 in air. Cells were plated at 5×10^4 cells per well into 24 well plates containing 1 ml of medium per well. After allowing the cells to attach overnight, media in the wells were replaced with fresh 1 ml medium. Human fetal osteoblasts (hFOB) cells and hFOB cells overexpressing estrogen receptor-alpha (hFOB-ERα) and estrogen receptor-beta (hFOB-ERβ) were grown in DMEM/F12 medium containing FBS, penicillin, streptomycin and Geneticin (300 μg/mL). The laboratory of Dr. B. L. Riggs at Mayo Clinic provided primary human osteoblast (HOB) cells. HOB cells were basically established from cancellous bone obtained as waste from orthopedic procedures and cultured as explants to generate the osteoblast-like monolayers as described by Borke et al., J. Clin. Endocrinol. Metab., 1988, 67:1299-1304. […]
# (§2) Estrogen metabolites were diluted 1000 fold to give the final required concentrations in each well, and maintained for 72 hrs. […] Cell growth was measured by taking the viable cell count. At the end of metabolite treatment, cells were harvested, stained with trypan blue, and counted under a light microscope.
# [2] = system: hFOB cells overexpressing estrogen receptor-beta (hFOB-ERβ); test: Cell survival, viable cell count with trypan blue; format: cell-based, human; settings: 2 μM, 72 h
# Description: as §1, §2
# [3] = system: osteosarcoma cells and immortalized cell lines; test: Cell survival, summary statement; format: cell-based
# Description: (§3) MG63 and TE85 human osteosarcoma cells, and ROS 17/2.8 rat osteosarcoma cells were grown in DMEM/F12 phenol-red free medium containing 10% charcoal-stripped fetal bovine serum (FBS) and supplemented with 100 units/ml penicillin, 100 μg/ml streptomycin. Cell were incubated at 37° C. under 5% CO2 in air. Cells were plated at 5×10^4 cells per well into 24 well plates containing 1 ml of medium per well. After allowing the cells to attach overnight, media in the wells were replaced with fresh 1 ml medium. Human fetal osteoblasts (hFOB) cells and hFOB cells overexpressing estrogen receptor-alpha (hFOB-ERα) and estrogen receptor-beta (hFOB-ERβ) were grown in DMEM/F12 medium containing FBS, penicillin, streptomycin and Geneticin (300 μg/mL). The laboratory of Dr. B. L. Riggs at Mayo Clinic provided primary human osteoblast (HOB) cells. HOB cells were basically established from cancellous bone obtained as waste from orthopedic procedures and cultured as explants to generate the osteoblast-like monolayers as described by Borke et al., J. Clin. Endocrinol. Metab., 1988, 67:1299-1304. Human FOB cells and hFOB cells stably transfected with estrogen receptors (ERs) were maintained at 34° C., while all other cells were incubated at 37° C. under 5% CO2 in air.
# (§4) Estrogen metabolites were diluted 1000 fold to give the final required concentrations in each well, and maintained for 72 hrs. The metabolites 2ME, 2OHE, and E2 were purchased from Sigma Chemical Company (St. Louis, Mo.). Stock solutions for each metabolite were made in 95% ethanol. Cell growth was measured by taking the viable cell count. At the end of metabolite treatment, cells were harvested, stained with trypan blue, and counted under a light microscope.
# [4] = system: MG63 human osteosarcoma cells; test: Cell survival, viable cell count with trypan blue; format: cell-based; settings: for cell death: 72 hrs
# Description: as §3, §4
# MG63 cells were treated with 0, 2, and 10 μM concentrations of 2ME in the presence or absence of 100 nM ICI for 72 hours. The cells were harvested and the viable cell counts were taken after staining with trypan blue.
# [5] = system: TE85 human osteosarcoma cells; test: Cell survival, viable cell count with trypan blue; format: cell-based; settings: 2 μM, 72 h
# Description: as §3, §4
# [6] = system: Human fetal osteoblasts (hFOB) cells; test: Cell survival, viable cell count with trypan blue; format: cell-based; settings: 2 μM, 72 h
# Description: as §3, §4
# [7] = system: ROS 17/2.8 rat osteosarcoma cells; test: Cell survival, viable cell count with trypan blue; format: cell-based; settings: 2 μM, 72 h
# Description: as §3, §4
# [8] = system: primary human osteoblast (HOB) cells; test: Cell survival, viable cell count with trypan blue; format: cell-based
# Description: as §3, §4
smiles,measurement,setting,value
"COc1cc2c(cc1O)CC[C@@H]1[C@@H]2CC[C@]2(C)[C@@H](O)CC[C@@H]12 [2ME, 2-methoxyestradiol]",cell numbers reduced to,[1],24%
same,cell numbers reduced to,[2],24%
same,reduction of cell survival,"[3]; 2 μM, continuous treatment, 72 hours",85%
same,reduction of cell survival,[3]; 20 μM,95%
same,cell survival rate,"[4]; 2 μM, 72 h",21%
same,reduction of MG63 cell survival,"[4]; 2 μM, 72 hours",approximately 80%
same,cell death,[4]; 20 μM,about 95%
same,cell death,[4]; 50 μM,~100%
same,cell survival rate,[5],9%
same,cell numbers reduced to,[6],15%
same,cell numbers reduced to,[7],19%
same,growth of normal osteoblasts (in words),[8],not affected
same,survival,"[8]; 2 μM, 72 h",89%
